Tests used:
Format in all cases: cell-based
[1] = system: Staph. haemolyticus L602 (clinical isolate); assay: MIC broth dilution test, Staph. haemolyticus; conditions: Isosensitest broth, 24 h
Description: (§1) Culture media and growth conditions for MIC (minimal inhibitory concentration) determinations were as follows: Isosensitest broth (Oxoid), 24 h, for staphylococci, Strep. faecalis and Gram-negative bacteria ( Escherichia coli); Todd-Hewitt broth (Difco), 24 h for other streptococcal species; GC base broth (Difco)+1% Isovitalex (BBL), 48 h, CO2 -enriched atmosphere for Neisseria gonorrhoeae; Brain Heart broth (Difco)+1% Supplement C (Difco), 48 h for Haemophilus influenzae; Inocula were of about 10^4 -10^5 colony-forming units/ml for broth dilution MICs.

[2] = system: Strep. pyogenes L49 C203; assay: MIC broth dilution test, Strep. pyogenes; conditions: Todd-Hewitt broth, 24 h
Description: as §1

[3] = system: Strep. mitis L796 (clinical isolate); assay: MIC broth dilution test, Strep. mitis; conditions: Todd-Hewitt broth, 24 h
Description: as §1

[4] = system: Strip. pneumoniae L44 UC41; assay: MIC broth dilution test, Strep. pneumoniae; conditions: Todd-Hewitt broth, 24 h
Description: as §1

[5] = system: Haemophilus influenzae L970 type b ATCC 19418; assay: MIC broth dilution test, Haemophilus influenzae; conditions: Brain Heart broth + 1% Supplement C, 48 h
Description: as §1

[6] = system: Strep. faecalis L149 ATCC 7080; assay: MIC broth dilution test, Strep. faecalis; conditions: Isosensitest broth, 24 h
Description: as §1

[7] = system: Staph. epidermidis L147 ATCC 12228 (coagulase negative); assay: MIC broth dilution test, Staph. epidermidis; conditions: Isosensitest broth, 24 h
Description: as §1

[8] = system: Neisseria gonorrhoeae L997 ISM68/126; assay: MIC broth dilution test, Neisseria gonorrhoeae; conditions: GC base broth + 1% Isovitalex, 48 h, CO2-enriched atmosphere
Description: as §1

SMILES	M.I.C. [1]	M.I.C. [2]	M.I.C. [3]	M.I.C. [4]	M.I.C. [5]	M.I.C. [6]	M.I.C. [7]	M.I.C. [8]
CC(=O)N[C@H]1[C@H](OC2c3ccc(c(Cl)c3)Oc3cc4cc(c3O[C@@H]3O[C@H](CO)[C@@H](O)[C@H](O)[C@H]3NC(=O)CCCCCCC(C)C)Oc3ccc(cc3Cl)CC3NC(=O)C(N)c5ccc(O)c(c5)Oc5cc(O)cc(c5)C(NC3=O)C(=O)NC4C(=O)NC3C(=O)NC2C(=O)NC(C(=O)O)c2cc(O)cc(O)c2-c2cc3ccc2O)O[C@H](CO)[C@@H](O)[C@@H]1O (stereo partly shown) [DM-TA2-2, de-mannosyl teicoplanin complex component 2]	0.5 microgram/ml	0.063 microgram/ml	0.063 microgram/ml	0.063 microgram/ml	64 microgram/ml	0.063 microgram/ml	0.063 microgram/ml	32 microgram/ml
CCCCCCCCCC(=O)N[C@H]1[C@H](Oc2c3cc4cc2Oc2ccc(cc2Cl)C(O[C@@H]2O[C@H](CO)[C@@H](O)[C@H](O)[C@H]2NC(C)=O)C2NC(=O)C(NC(=O)C4NC(=O)C4NC(=O)C(Cc5ccc(c(Cl)c5)O3)NC(=O)C(N)c3ccc(O)c(c3)Oc3cc(O)cc4c3)c3ccc(O)c(c3)-c3c(O)cc(O)cc3C(C(=O)O)NC2=O)O[C@H](CO)[C@@H](O)[C@@H]1O (stereo partly shown) [DM-TA2-3, de-mannosyl teicoplanin complex component 3]	0.5 microgram/ml	0.063 microgram/ml	0.063 microgram/ml	0.063 microgram/ml	64 microgram/ml	0.063 microgram/ml	0.063 microgram/ml	32 microgram/ml
CCC(C)CCCCCCC(=O)N[C@H]1[C@H](Oc2c3cc4cc2Oc2ccc(cc2Cl)C(O[C@@H]2O[C@H](CO)[C@@H](O)[C@H](O)[C@H]2NC(C)=O)C2NC(=O)C(NC(=O)C4NC(=O)C4NC(=O)C(Cc5ccc(c(Cl)c5)O3)NC(=O)C(N)c3ccc(O)c(c3)Oc3cc(O)cc4c3)c3ccc(O)c(c3)-c3c(O)cc(O)cc3C(C(=O)O)NC2=O)O[C@H](CO)[C@@H](O)[C@@H]1O (stereo partly shown) [DM-TA2-4, de-mannosyl teicoplanin complex component 4]	0.5 microgram/ml	0.063 microgram/ml	–	0.063 microgram/ml	64 microgram/ml	0.063 microgram/ml	0.063 microgram/ml	32 microgram/ml
CC(=O)N[C@H]1[C@H](OC2c3ccc(c(Cl)c3)Oc3cc4cc(c3O[C@@H]3O[C@H](CO)[C@@H](O)[C@H](O)[C@H]3NC(=O)CCCCCCCC(C)C)Oc3ccc(cc3Cl)CC3NC(=O)C(N)c5ccc(O)c(c5)Oc5cc(O)cc(c5)C(NC3=O)C(=O)NC4C(=O)NC3C(=O)NC2C(=O)NC(C(=O)O)c2cc(O)cc(O)c2-c2cc3ccc2O)O[C@H](CO)[C@@H](O)[C@@H]1O (stereo partly shown) [DM-TA2-5, de-mannosyl teicoplanin complex component 5]	0.25 microgram/ml	0.063 microgram/ml	0.063 microgram/ml	0.063 microgram/ml	32 microgram/ml	0.063 microgram/ml	0.063 microgram/ml	32 microgram/ml

Reference: patent US5135857A, “Process for the preparation of de-mannosyl teicoplanin derivatives” (Gruppo Lepetit S.p.A., priority 1987, dated 1992)
